Where two headings read alike, the source gives them in different places.
Tests used:
[1] = target: T1, AEA-DA lipid probe targets in Neuro2a cells (Mus musculus, UniProt Q3TZX3)
T1 sequence (Q3TZX3 1-320): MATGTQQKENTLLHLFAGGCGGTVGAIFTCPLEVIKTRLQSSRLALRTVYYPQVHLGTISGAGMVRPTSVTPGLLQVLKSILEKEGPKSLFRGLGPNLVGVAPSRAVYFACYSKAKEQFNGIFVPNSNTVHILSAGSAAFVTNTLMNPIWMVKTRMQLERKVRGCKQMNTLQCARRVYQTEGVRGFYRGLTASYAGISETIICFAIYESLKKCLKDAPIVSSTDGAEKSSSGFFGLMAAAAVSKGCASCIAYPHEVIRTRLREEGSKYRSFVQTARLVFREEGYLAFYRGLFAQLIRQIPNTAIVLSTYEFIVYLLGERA

[2] = target: T2, AEA-DA lipid probe targets in Neuro2a cells (Mus musculus, UniProt Q8BP40)
T2 sequence (Q8BP40 26-418): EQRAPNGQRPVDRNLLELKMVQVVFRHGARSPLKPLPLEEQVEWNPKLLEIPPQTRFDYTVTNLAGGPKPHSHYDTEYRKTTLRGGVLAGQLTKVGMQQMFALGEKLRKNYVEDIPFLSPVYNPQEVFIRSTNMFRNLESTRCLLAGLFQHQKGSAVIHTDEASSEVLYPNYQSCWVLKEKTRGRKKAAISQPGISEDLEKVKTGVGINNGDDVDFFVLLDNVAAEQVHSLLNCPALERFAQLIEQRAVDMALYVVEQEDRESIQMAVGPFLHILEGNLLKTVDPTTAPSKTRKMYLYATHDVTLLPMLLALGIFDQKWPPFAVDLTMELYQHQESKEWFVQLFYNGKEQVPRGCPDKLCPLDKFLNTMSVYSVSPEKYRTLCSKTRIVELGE

[3] = target: AEA-DA lipid probe targets in Neuro2a cells (Mus musculus, UniProt Q99KQ4)
Sequence of AEA-DA lipid probe targets in Neuro2a cells (Mus musculus, UniProt Q99KQ4) (Q99KQ4 whole entry): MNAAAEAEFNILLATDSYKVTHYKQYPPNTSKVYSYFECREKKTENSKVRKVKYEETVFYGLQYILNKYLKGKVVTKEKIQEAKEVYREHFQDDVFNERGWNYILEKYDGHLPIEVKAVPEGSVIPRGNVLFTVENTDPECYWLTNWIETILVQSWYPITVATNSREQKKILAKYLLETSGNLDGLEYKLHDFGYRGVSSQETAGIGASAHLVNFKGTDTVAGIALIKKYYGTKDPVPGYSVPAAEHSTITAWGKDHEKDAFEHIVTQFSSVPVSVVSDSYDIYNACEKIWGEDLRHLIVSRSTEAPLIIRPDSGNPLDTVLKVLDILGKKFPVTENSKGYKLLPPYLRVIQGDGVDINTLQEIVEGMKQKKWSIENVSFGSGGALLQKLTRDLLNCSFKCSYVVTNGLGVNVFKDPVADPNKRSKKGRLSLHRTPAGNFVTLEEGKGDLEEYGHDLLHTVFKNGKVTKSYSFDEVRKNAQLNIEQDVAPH

[4] = target: AEA-DA lipid probe targets in Neuro2a cells (Mus musculus, UniProt P62821)
Sequence of AEA-DA lipid probe targets in Neuro2a cells (Mus musculus, UniProt P62821) (P62821 whole entry): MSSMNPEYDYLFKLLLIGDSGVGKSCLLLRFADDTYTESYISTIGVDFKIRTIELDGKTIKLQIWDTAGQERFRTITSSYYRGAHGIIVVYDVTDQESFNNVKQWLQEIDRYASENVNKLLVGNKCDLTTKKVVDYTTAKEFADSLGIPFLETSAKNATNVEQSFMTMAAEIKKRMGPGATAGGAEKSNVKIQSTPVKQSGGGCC

[5] = target: T3, AEA-DA lipid probe targets in Neuro2a cells (Mus musculus, UniProt Q8BHC4); details: for SILAC ratio, DCAKD (Q8BHC4): Neuro2a cells, AEA-DA probe
T3 sequence (Q8BHC4 1-231): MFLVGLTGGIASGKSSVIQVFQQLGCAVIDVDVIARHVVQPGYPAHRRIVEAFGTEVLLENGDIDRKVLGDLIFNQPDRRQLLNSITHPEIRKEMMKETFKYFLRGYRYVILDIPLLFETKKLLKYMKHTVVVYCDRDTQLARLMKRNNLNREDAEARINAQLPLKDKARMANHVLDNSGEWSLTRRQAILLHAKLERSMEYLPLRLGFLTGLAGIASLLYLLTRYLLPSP

[6] = target: T4, AEA-DA lipid probe targets in Neuro2a cells (Mus musculus, UniProt P51174)
T4 sequence (P51174 31-430): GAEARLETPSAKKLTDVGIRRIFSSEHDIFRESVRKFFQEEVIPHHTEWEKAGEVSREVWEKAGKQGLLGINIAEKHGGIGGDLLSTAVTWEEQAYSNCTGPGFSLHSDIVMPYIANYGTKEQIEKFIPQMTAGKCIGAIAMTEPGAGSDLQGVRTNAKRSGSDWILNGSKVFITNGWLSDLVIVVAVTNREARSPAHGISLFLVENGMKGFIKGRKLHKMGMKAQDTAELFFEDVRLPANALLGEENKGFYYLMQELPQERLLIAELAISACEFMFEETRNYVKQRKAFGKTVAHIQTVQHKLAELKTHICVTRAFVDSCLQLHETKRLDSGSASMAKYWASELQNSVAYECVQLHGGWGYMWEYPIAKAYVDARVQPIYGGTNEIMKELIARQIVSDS

[7] = target: T5, AEA-DA lipid probe targets in Neuro2a cells (Mus musculus, UniProt Q62186)
T5 sequence (Q62186 24-172): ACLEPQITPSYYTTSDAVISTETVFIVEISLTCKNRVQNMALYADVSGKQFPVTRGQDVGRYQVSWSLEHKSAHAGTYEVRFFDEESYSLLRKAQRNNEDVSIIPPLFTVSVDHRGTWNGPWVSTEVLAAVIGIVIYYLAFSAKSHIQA

[8] = target: T6, AEA-DA lipid probe targets in Neuro2a cells (Mus musculus, UniProt P00375)
T6 sequence (P00375 1-187): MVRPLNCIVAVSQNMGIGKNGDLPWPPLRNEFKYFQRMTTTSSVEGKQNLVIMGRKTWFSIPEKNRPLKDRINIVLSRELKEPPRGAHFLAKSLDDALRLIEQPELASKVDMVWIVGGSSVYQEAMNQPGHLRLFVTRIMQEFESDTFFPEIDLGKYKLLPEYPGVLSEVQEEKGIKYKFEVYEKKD

[9] = target: AEA-DA lipid probe targets in Neuro2a cells (Mus musculus, UniProt P20029)
Sequence of AEA-DA lipid probe targets in Neuro2a cells (Mus musculus, UniProt P20029) (P20029 20-655): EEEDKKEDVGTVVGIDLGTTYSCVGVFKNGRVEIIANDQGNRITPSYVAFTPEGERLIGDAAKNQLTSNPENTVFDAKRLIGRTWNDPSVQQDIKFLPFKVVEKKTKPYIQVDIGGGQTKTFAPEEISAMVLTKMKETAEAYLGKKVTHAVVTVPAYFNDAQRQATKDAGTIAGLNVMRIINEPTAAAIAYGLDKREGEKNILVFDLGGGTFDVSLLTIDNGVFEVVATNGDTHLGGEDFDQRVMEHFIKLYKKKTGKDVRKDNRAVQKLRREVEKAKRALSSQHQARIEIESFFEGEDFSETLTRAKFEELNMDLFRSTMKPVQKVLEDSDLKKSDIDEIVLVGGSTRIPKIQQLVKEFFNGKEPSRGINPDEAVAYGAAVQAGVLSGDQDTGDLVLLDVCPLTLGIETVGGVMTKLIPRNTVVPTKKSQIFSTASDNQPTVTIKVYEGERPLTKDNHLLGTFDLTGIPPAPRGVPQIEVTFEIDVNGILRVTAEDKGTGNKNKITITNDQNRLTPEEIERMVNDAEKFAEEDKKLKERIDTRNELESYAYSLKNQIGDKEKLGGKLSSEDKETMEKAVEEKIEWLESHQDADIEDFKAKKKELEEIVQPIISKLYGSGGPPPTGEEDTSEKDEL

[10] = target: T7, AEA-DA lipid probe targets in Neuro2a cells (Mus musculus, UniProt Q8BKE6)
T7 sequence (Q8BKE6 1-462): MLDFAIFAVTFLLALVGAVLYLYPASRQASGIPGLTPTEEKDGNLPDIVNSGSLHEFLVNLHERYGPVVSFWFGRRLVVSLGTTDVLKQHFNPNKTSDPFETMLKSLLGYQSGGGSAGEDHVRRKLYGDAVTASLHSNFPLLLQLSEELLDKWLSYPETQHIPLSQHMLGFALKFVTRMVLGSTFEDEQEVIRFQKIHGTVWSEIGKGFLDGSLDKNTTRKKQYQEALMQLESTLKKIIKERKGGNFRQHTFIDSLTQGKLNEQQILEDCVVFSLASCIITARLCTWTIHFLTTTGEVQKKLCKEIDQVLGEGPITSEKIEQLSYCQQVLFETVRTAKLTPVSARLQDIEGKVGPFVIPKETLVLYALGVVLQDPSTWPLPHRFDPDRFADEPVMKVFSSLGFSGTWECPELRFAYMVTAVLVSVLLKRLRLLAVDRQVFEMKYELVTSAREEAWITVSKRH

CCCCC/C=C\C/C=C\C/C=C\C/C=C\CCCC(=O)NCCO [AEA, anandamide, reference compound]
SILAC ratio Slc25a33 ([1]; competitor 200 μM): 1.3 | SILAC ratio, Acp6 ([2]; competitor 200 μM): 2.5 | SILAC ratio, Nampt ([3]; competitor 200 μM): 1.1 | SILAC ratio Rab1A ([4]; competitor 200 μM): 1.2 | SILAC ratio, DCAKD (Q8BHC4) ([5]; competitor 200 μM): 1.9 | SILAC ratio, Dcakd ([5]; competitor 200 μM): 1.9 | SILAC ratio, Acadl ([6]; competitor 200 μM): 1.1 | SILAC ratio, Ssr4 ([7]; competitor 200 μM): 1.8 | SILAC ratio Dhfr ([8]; competitor 200 μM): 1.2 | SILAC ratio Hspa5 ([9]; competitor 200 μM): 1.2

O=C(/C=C/c1cccnc1)NCCCCC1CCN(C(=O)c2ccccc2)CC1 [FK-866, reference compound]
SILAC ratio Slc25a33 ([1]; competitor 25 μM): 1.2 | SILAC ratio, Acp6 ([2]; competitor 25 μM): 1.2 | SILAC ratio, Nampt ([3]; competitor 25 μM): 16.4 | SILAC ratio Rab1A ([4]; competitor 25 μM): 1.1 | SILAC ratio, Cyp20a1 ([10]; competitor 25 μM): 1.1 | SILAC ratio, DCAKD (Q8BHC4) ([5]; competitor 25 μM): 1.1 | SILAC ratio, Dcakd ([5]; competitor 25 μM): 1.1 | SILAC ratio, Acadl ([6]; competitor 25 μM): 12.4 | SILAC ratio, Ssr4 ([7]; competitor 25 μM): 1.2 | SILAC ratio Dhfr ([8]; competitor 25 μM): 1.2 | SILAC ratio Hspa5 ([9]; competitor 25 μM): 1.2

CN1CCN(C(=O)c2c(-c3ccccc3)c3cc([N+](=O)[O-])ccc3n2C)CC1 [KML110, (1-Methyl-5-nitro-3-phenyl-1H-indol-2-yl)(4-methylpiperazin-1-yl)methanone]
SILAC ratio Slc25a33 ([1]; competitor 25 μM): 1.4 | SILAC ratio, Acp6 ([2]; competitor 25 μM): 1.6 | SILAC ratio, Nampt ([3]; competitor 25 μM): 2.0 | SILAC ratio Rab1A ([4]; competitor 25 μM): 1.3 | SILAC ratio, Cyp20a1 ([10]; competitor 25 μM): 1.4 | SILAC ratio, Dcakd ([5]; competitor 25 μM): 1.4 | SILAC ratio, Acadl ([6]; competitor 25 μM): 1.8 | SILAC ratio, Ssr4 ([7]; competitor 25 μM): 1.5 | SILAC ratio Dhfr ([8]; competitor 25 μM): 1.4 | SILAC ratio Hspa5 ([9]; competitor 25 μM): 1.4

CN1CCN(C(=O)c2[nH]c3ccc([N+](=O)[O-])cc3c2-c2ccccc2)CC1 [MJN228, (4-Methylpiperazin-1-yl)(5-nitro-3-phenyl-1H-indol-2-yl)methanone]
SILAC ratio Slc25a33 ([1]; competitor 10 μM): 1.2 | SILAC ratio Slc25a33 ([1]; competitor 25 μM): 1.2 | SILAC ratio Slc25a33 ([1]; competitor 50 μM): 0.9 | SILAC ratio Slc25a33 ([1]; competitor 100 μM): 0.6 | SILAC ratio, Acp6 ([2]; competitor 10 μM): 1.5 | SILAC ratio, Acp6 ([2]; competitor 25 μM): 1.5 | SILAC ratio, Acp6 ([2]; competitor 50 μM): 1.8 | SILAC ratio, Acp6 ([2]; competitor 100 μM): 2.3 | SILAC ratio, Nampt ([3]; competitor 25 μM): 1.2 | SILAC ratio, Nampt ([3]; competitor 50 μM): 1.0 | SILAC ratio Rab1A ([4]; competitor 10 μM): 1.1 | SILAC ratio Rab1A ([4]; competitor 25 μM): 1.3 | SILAC ratio Rab1A ([4]; competitor 50 μM): 1.3 | SILAC ratio Rab1A ([4]; competitor 100 μM): 1.3 | SILAC ratio, Cyp20a1 ([10]; competitor 10 μM): 1.2 | SILAC ratio, Cyp20a1 ([10]; competitor 25 μM): 1.3 | SILAC ratio, Cyp20a1 ([10]; competitor 50 μM): 1.2 | SILAC ratio, Cyp20a1 ([10]; competitor 100 μM): 1.6 | SILAC ratio, DCAKD (Q8BHC4) ([5]; competitor 25 μM): 1.4 | SILAC ratio, Dcakd ([5]; competitor 10 μM): 1.2 | SILAC ratio, Dcakd ([5]; competitor 25 μM): 1.4 | SILAC ratio, Dcakd ([5]; competitor 50 μM): 1.5 | SILAC ratio, Dcakd ([5]; competitor 100 μM): 1.9 | SILAC ratio, Acadl ([6]; competitor 10 μM): 1.4 | SILAC ratio, Acadl ([6]; competitor 25 μM): 1.8 | SILAC ratio, Acadl ([6]; competitor 50 μM): 2.0 | SILAC ratio, Acadl ([6]; competitor 100 μM): 2.4 | SILAC ratio, Ssr4 ([7]; competitor 10 μM): 1.5 | SILAC ratio, Ssr4 ([7]; competitor 25 μM): 1.9 | SILAC ratio, Ssr4 ([7]; competitor 50 μM): 2.4 | SILAC ratio, Ssr4 ([7]; competitor 100 μM): 2.6 | SILAC ratio Dhfr ([8]; competitor 10 μM): 2.0 | SILAC ratio Dhfr ([8]; competitor 25 μM): 1.6 | SILAC ratio Dhfr ([8]; competitor 50 μM): 0.4 | SILAC ratio Dhfr ([8]; competitor 100 μM): 1.5 | SILAC ratio Hspa5 ([9]; competitor 10 μM): 1.4 | SILAC ratio Hspa5 ([9]; competitor 25 μM): 1.4 | SILAC ratio Hspa5 ([9]; competitor 50 μM): 1.4 | SILAC ratio Hspa5 ([9]; competitor 100 μM): 1.5

C=CCN(C)CCCCCCOc1ccc(C(=O)c2ccc(Br)cc2)c(F)c1 [Ro 48-8071, reference compound]
SILAC ratio Slc25a33 ([1]; competitor 25 μM): 1.0 | SILAC ratio, Acp6 ([2]; competitor 25 μM): 0.9 | SILAC ratio, Nampt ([3]; competitor 25 μM): 0.9 | SILAC ratio Rab1A ([4]; competitor 25 μM): 1.0 | SILAC ratio, Cyp20a1 ([10]; competitor 25 μM): 1.1 | SILAC ratio, DCAKD (Q8BHC4) ([5]; competitor 25 μM): 1.0 | SILAC ratio, Dcakd ([5]; competitor 25 μM): 1.0 | SILAC ratio, Acadl ([6]; competitor 25 μM): 1.3 | SILAC ratio, Ssr4 ([7]; competitor 25 μM): 1.2 | SILAC ratio Dhfr ([8]; competitor 25 μM): 0.8 | SILAC ratio Hspa5 ([9]; competitor 25 μM): 0.9

From patent US10168342B2, “Lipid probes and uses thereof” (THE SCRIPPS RESEARCH INSTITUTE, priority 2015, dated 2019)
